According to ChEMBL document CHEMBL4330132, “5-Keto-3-cyano-2,4-diaminothiophenes as selective maternal embryonic leucine zipper kinase inhibitors” (Bioorg Med Chem Lett, 2019):

Assays:
[1] = test system: Tyrosine-protein kinase ABL1 (Homo sapiens), P00519 [E255K]; experiment: Binding affinity to human phosphorylated ABL1 E255K mutant (S229 to K512 residues) expressed in mammalian expression system assessed as residual binding level at 1 uM by Kinomescan method relative to control
[2] = test system: Tyrosine-protein kinase ABL1 (Homo sapiens), P00519 [F317I]; experiment: Binding affinity to human phosphorylated ABL1 F317I mutant (S229 to K512 residues) expressed in mammalian expression system assessed as residual binding level at 1 uM by Kinomescan method relative to control
[3] = biological target: RAC-gamma serine/threonine-protein kinase (Homo sapiens) (UniProt Q9Y243); experiment: Binding affinity to wild-type human partial length AKT3 expressed in bacterial expression system assessed as residual binding level at 1 uM by Kinomescan method relative to control
[4] = biological target: Tyrosine-protein kinase BTK (Homo sapiens) (UniProt Q06187); experiment: Binding affinity to wild-type human full length BTK (M1 to S659 residues) expressed in mammalian expression system assessed as residual binding level at 1 uM by Kinomescan method relative to control
[5] = biological target: Calcium/calmodulin-dependent protein kinase kinase 2 (Homo sapiens) (UniProt Q96RR4); experiment: Binding affinity to wild-type human partial length CAMKK2 (D65 to V471 residues) expressed in bacterial expression system assessed as residual binding level at 1 uM by Kinomescan method relative to control
[6] = biological target: Death-associated protein kinase 3 (Homo sapiens) (UniProt O43293); experiment: Binding affinity to wild-type human partial length DAPK3 (M1 to A277 residues) expressed in bacterial expression system assessed as residual binding level at 1 uM by Kinomescan method relative to control
Death-associated protein kinase 3 (Homo sapiens), sequence (O43293 whole entry, looked up, the tested form may be a part): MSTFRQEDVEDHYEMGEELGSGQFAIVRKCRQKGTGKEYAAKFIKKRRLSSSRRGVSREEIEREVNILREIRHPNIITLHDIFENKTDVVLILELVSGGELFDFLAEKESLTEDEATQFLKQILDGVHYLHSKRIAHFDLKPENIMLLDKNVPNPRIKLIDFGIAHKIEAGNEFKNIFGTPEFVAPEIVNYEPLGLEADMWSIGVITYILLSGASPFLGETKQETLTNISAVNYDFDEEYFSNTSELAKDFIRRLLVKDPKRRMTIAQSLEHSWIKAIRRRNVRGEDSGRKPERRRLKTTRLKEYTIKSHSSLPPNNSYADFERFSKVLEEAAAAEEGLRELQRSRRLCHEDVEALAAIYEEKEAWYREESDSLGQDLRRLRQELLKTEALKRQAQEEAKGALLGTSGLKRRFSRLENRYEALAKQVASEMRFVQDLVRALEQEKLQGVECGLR

[7] = test system: Epidermal growth factor receptor (Homo sapiens), P00533 [T790M]; experiment: Binding affinity to human partial length EGFR T790M mutant (R669 to G1022 residues) expressed in mammalian expression system assessed as residual binding level at 1 uM by Kinomescan method relative to control
[8] = biological target: Fibroblast growth factor receptor 1 (Homo sapiens) (UniProt P11362); experiment: Binding affinity to wild-type human partial length FGFR1 (P357 to V669 residues) expressed in bacterial expression system assessed as residual binding level at 1 uM by Kinomescan method relative to control
[9] = biological target: Tyrosine-protein kinase FRK (Homo sapiens) (UniProt P42685); experiment: Binding affinity to wild-type human partial length FRK (A215 to F503 residues) expressed in bacterial expression system assessed as residual binding level at 1 uM by Kinomescan method relative to control
Tyrosine-protein kinase FRK (Homo sapiens), sequence (P42685 whole entry, the tested form may be a part): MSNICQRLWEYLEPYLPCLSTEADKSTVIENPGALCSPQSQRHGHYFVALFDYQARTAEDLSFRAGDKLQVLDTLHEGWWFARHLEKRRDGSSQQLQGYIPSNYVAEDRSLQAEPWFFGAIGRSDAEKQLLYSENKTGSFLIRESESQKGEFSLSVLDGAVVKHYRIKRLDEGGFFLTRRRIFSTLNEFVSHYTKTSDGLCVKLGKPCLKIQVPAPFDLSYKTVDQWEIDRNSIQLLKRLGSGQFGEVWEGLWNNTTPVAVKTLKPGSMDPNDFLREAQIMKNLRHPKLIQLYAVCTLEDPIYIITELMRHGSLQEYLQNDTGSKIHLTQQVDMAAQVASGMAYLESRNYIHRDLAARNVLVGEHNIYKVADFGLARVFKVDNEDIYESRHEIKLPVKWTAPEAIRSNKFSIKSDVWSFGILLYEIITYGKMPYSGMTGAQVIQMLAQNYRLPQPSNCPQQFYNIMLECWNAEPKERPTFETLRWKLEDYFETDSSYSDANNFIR

[10] = biological target: Serine/threonine-protein kinase MARK2 (Homo sapiens) (UniProt Q7KZI7); experiment: Binding affinity to wild-type human partial length MARK2 (M1 to R450 residues) expressed in bacterial expression system assessed as residual binding level at 1 uM by Kinomescan method relative to control
Serine/threonine-protein kinase MARK2 (Homo sapiens), sequence (Q7KZI7 whole entry, the tested form may be a part): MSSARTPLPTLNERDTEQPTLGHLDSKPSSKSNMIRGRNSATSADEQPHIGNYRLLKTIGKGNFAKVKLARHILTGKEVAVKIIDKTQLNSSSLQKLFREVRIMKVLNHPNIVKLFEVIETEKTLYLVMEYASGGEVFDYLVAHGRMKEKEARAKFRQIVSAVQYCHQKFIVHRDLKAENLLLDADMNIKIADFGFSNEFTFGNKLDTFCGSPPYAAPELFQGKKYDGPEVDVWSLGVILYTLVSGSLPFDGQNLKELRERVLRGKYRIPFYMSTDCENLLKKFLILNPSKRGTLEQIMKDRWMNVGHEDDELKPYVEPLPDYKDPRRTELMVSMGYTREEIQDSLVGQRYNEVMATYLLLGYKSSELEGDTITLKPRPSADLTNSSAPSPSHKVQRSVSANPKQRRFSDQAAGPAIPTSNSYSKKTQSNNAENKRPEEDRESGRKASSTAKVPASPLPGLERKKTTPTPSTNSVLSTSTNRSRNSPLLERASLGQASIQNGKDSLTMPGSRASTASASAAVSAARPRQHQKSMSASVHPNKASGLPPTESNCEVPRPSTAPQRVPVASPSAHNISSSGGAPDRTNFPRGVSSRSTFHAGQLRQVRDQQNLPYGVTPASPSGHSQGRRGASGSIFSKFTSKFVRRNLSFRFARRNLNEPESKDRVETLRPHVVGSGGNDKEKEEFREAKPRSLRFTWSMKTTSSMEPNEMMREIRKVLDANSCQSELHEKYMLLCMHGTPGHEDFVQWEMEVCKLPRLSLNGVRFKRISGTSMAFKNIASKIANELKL

[11] = biological target: Dual specificity mitogen-activated protein kinase kinase 2 (Homo sapiens) (UniProt P36507); experiment: Binding affinity to wild-type human full length MEK2 (M1 to V400 residues) expressed in mammalian expression system assessed as residual binding level at 1 uM by Kinomescan method relative to control
[12] = biological target: Myosin light chain kinase (Homo sapiens) (UniProt Q32MK0); experiment: Binding affinity to wild-type human partial length MLCK (D488 to K800 residues) expressed in bacterial expression system assessed as residual binding level at 1 uM by Kinomescan method relative to control
[13] = biological target: Mitogen-activated protein kinase kinase kinase 10 (Homo sapiens) (UniProt Q02779); experiment: Binding affinity to wild-type human partial length MLK2 (V52 to W380 residues) expressed in bacterial expression system assessed as residual binding level at 1 uM by Kinomescan method relative to control
[14] = biological target: Serine/threonine-protein kinase 24 (Homo sapiens) (UniProt Q9Y6E0); experiment: Binding affinity to wild-type human partial length MST3 (A30 to S311 residues) expressed in bacterial expression system assessed as residual binding level at 1 uM by Kinomescan method relative to control
Serine/threonine-protein kinase 24 (Homo sapiens), sequence (Q9Y6E0 whole entry, looked up, the tested form may be a part): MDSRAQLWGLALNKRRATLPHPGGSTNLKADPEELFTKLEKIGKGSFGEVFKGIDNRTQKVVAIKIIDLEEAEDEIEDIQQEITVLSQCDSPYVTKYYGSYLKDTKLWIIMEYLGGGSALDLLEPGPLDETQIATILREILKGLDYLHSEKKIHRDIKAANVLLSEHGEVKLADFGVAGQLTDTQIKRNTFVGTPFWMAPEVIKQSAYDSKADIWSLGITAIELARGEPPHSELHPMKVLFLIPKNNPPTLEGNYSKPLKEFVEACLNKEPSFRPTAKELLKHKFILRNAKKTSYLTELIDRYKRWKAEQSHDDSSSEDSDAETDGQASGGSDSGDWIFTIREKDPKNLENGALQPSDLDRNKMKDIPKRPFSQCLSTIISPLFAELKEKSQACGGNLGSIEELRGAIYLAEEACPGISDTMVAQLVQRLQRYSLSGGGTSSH

[15] = biological target: Myosin-IIIa (Homo sapiens) (UniProt Q8NEV4); experiment: Binding affinity to wild-type human partial length MYO3A (M1 to K338 residues) expressed in bacterial expression system assessed as residual binding level at 1 uM by Kinomescan method relative to control
Myosin-IIIa (Homo sapiens), sequence (Q8NEV4 whole entry, the tested form may be a part): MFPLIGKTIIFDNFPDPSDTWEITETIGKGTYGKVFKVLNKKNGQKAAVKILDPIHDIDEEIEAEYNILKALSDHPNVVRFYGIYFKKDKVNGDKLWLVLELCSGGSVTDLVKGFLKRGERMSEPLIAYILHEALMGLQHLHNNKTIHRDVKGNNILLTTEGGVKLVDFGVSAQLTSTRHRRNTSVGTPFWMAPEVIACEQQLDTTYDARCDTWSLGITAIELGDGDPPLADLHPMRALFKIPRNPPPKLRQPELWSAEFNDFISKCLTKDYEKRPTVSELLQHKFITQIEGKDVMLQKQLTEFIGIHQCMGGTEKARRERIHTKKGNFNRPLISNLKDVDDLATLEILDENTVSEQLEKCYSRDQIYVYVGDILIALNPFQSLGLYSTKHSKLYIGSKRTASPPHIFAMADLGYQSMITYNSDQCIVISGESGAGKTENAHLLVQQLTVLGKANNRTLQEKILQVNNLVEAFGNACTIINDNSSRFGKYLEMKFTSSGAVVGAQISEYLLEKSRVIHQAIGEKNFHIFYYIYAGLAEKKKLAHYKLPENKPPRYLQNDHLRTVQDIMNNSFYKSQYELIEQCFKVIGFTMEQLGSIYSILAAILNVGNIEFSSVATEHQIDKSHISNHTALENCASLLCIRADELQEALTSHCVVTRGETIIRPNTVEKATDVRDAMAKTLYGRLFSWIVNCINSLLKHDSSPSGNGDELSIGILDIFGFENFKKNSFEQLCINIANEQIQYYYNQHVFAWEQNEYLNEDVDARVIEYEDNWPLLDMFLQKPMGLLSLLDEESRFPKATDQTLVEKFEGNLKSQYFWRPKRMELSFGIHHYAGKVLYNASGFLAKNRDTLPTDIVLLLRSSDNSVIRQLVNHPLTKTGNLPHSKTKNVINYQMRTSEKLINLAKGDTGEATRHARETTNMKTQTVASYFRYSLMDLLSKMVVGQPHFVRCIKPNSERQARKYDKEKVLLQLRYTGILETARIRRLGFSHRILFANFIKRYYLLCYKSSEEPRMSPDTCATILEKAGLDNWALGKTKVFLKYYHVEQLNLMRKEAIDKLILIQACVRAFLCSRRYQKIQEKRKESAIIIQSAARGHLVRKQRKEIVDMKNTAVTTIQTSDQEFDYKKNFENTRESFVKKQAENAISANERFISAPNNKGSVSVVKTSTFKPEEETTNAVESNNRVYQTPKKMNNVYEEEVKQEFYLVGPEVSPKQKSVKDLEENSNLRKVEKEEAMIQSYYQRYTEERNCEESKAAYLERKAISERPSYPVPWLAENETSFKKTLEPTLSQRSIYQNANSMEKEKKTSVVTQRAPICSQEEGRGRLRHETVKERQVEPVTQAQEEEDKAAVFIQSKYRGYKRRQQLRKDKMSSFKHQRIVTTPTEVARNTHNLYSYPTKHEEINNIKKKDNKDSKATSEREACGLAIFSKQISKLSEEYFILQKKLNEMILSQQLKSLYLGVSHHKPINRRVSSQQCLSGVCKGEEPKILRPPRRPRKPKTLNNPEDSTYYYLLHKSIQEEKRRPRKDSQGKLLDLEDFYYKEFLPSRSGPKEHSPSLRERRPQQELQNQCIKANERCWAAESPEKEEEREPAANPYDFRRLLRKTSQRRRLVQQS

[16] = biological target: Serine/threonine-protein kinase Nek5 (Homo sapiens) (UniProt Q6P3R8); experiment: Binding affinity to wild-type human partial length NEK5 (M1 to M279 residues) expressed in bacterial expression system assessed as residual binding level at 1 uM by Kinomescan method relative to control
[17] = test system: Phosphatidylinositol 4,5-bisphosphate 3-kinase catalytic subunit alpha isoform (Homo sapiens), P42336 [H1047L]; experiment: Binding affinity to human partial length PIK3CA H1047L mutant (R108 to N1068 residues) expressed in mammalian expression system assessed as residual binding level at 1 uM by Kinomescan method relative to control
[18] = biological target: Membrane-associated tyrosine- and threonine-specific cdc2-inhibitory kinase (Homo sapiens) (UniProt Q99640); experiment: Binding affinity to wild-type human partial length PKMYT1 (A88 to G366 residues) expressed in bacterial expression system assessed as residual binding level at 1 uM by Kinomescan method relative to control
[19] = biological target: Serine/threonine-protein kinase PLK4 (Homo sapiens) (UniProt O00444); experiment: Binding affinity to wild-type human partial length PLK4 (M1 to S273 residues) expressed in mammalian expression system assessed as residual binding level at 1 uM by Kinomescan method relative to control
Serine/threonine-protein kinase PLK4 (Homo sapiens), sequence (O00444 whole entry, the tested form may be a part): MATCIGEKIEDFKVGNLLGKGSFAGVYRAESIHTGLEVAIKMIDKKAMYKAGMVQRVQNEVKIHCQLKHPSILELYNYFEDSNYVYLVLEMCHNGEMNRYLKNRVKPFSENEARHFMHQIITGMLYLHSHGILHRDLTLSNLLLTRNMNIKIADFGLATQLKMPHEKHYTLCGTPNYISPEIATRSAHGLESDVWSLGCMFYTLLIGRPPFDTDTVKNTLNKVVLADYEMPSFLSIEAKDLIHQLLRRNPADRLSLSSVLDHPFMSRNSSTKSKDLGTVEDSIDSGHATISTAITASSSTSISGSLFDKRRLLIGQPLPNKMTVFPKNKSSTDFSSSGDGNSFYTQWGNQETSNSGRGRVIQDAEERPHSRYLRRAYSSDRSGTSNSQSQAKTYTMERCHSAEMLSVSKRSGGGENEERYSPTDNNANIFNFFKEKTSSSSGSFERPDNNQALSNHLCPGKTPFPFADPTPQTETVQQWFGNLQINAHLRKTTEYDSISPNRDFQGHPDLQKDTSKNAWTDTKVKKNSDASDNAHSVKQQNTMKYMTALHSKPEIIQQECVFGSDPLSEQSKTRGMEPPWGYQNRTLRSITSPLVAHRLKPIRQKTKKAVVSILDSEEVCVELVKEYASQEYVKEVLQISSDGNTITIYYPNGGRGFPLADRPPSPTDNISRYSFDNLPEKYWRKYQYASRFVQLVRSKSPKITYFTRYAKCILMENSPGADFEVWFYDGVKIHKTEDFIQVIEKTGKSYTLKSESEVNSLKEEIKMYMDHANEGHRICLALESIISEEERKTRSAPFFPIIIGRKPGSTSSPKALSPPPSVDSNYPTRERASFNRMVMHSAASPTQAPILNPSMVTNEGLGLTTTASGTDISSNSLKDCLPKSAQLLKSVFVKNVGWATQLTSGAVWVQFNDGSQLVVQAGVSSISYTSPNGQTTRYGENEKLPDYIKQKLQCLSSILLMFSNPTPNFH

[20] = biological target: Serine/threonine-protein kinase RIO2 (Homo sapiens) (UniProt Q9BVS4); experiment: Binding affinity to wild-type human partial length RIOK2 (M1 to D313 residues) expressed in mammalian expression system assessed as residual binding level at 1 uM by Kinomescan method relative to control
[21] = biological target: Uncharacterized serine/threonine-protein kinase SBK3 (Homo sapiens) (UniProt P0C264); experiment: Binding affinity to wild-type human partial length SgK110 (L22 to R329 residues) expressed in bacterial expression system assessed as residual binding level at 1 uM by Kinomescan method relative to control
[22] = biological target: Non-receptor tyrosine-protein kinase TYK2 (Homo sapiens) (UniProt P29597); experiment: Binding affinity to wild-type human partial length TYK2 JH2 pseudokinase domain (G556 to D888 residues) expressed in mammalian expression system assessed as residual binding level at 1 uM by Kinomescan method relative to control
[23] = biological target: Serine/threonine-protein kinase ULK1 (Homo sapiens) (UniProt O75385); experiment: Binding affinity to wild-type human partial length ULK1 (M1 to T309 residues) expressed in mammalian expression system assessed as residual binding level at 1 uM by Kinomescan method relative to control
[24] = biological target: Serine/threonine-protein kinase 32B (Homo sapiens) (UniProt Q9NY57); experiment: Binding affinity to wild-type human full length YANK2 (M1 to S414 residues) expressed in bacterial expression system assessed as residual binding level at 1 uM by Kinomescan method relative to control

CC(C)Nc1sc(C(=O)c2ccc(Cl)s2)c(N)c1C#N
Activity [1]: 100%
Activity [2]: 100%
Activity [3]: 100%
Activity [4]: 74%
Activity [5]: 76%
Activity [6]: 74%
Activity [7]: 66%
Activity [8]: 70%
Activity [9]: 76%
Activity [10]: 91%
Activity [11]: 100%
Activity [12]: 71%
Activity [13]: 100%
Activity [14]: 99%
Activity [15]: 75%
Activity [16]: 91%
Activity [17]: 99%
Activity [18]: 78%
Activity [19]: 100%
Activity [20]: 100%
Activity [21]: 100%
Activity [22]: 100%
Activity [23]: 92%
Activity [24]: 100%
